Data reported in patent US10167262B2, “Herbicidal substituted 3-arylpyrazoles” (FMC CORPORATION, priority 2014, dated 2019).

Columns and labels:
Type in all cases: in vivo
wild oat (Avena fatua) = experiment: Test C postemergence greenhouse test, plant response rating 0-100; settings: for Plant response rating, Oat, Wild: scale 0 to 100
Text: (§1) At the same time, plants selected from these crop and weed species and also winter barley (Hordeum vulgare), bermudagrass (Cynodon dactylon), downy bromegrass (Bromus tectorum), canarygrass (Phalaris minor), cocklebur (common cocklebur, Xanthium strumarium), woolly cupgrass (Eriochloa villosa), deadnettle (henbit deadnettle, Lamium amplexicaule), green foxtail (Setaria viridis), goosegrass (Eleusine indica), surinam grass (Brachiaria decumbens), windgrass (Apera spica-venti), chickweed (common chickweed, Stellaria media), kochia (Kochia scoparia), and wild oat (Avena fatua), were planted in pots containing Redi-Earth® planting medium (Scotts Company, 14111 Scottslawn Road, Marysville, Ohio 43041) comprising spaghnum peat moss, vermiculite, wetting agent and starter nutrients and treated with postemergence applications of test chemicals formulated in the same manner. Plants ranged in height from 2 to 18 cm (1- to 4-leaf stage) for postemergence treatments. Treated plants and controls were maintained in a greenhouse for 13 to 15 days, after which time all species were compared to controls and visually evaluated. Plant response ratings, summarized in Table C, are based on a scale of 0 to 100 where 0 is no effect and 100 is complete control. A dash (-) response means no test result.

kochia (Kochia scoparia) = experiment: as above; settings: for Plant response rating, Kochia: scale 0 to 100
Text: as §1

[1] = tested on: chickweed (common chickweed, Stellaria media); experiment: as above; settings: for Plant response rating, Chickweed: scale 0 to 100
Text: as §1

[2] = tested on: johnsongrass (Sorghum halepense); experiment: Test C pre-/postemergence greenhouse test, plant response rating 0-100; settings: Postemergence; for Plant response rating, Johnsongrass: scale 0 to 100
Text: (§2) Seeds of plant species selected from blackgrass (Alopecurus myosuroides), Italian ryegrass (Lolium multiflorum), winter wheat (Triticum aestivum), galium (catchweed bedstraw, Galium aparine), corn (Zea mays), large (Lg) crabgrass (Digitaria sanguinalis), giant foxtail (Setaria faberii), johnsongrass (Sorghum halepense), lambsquarters (Chenopodium album), morningglory (Ipomoea coccinea), yellow nutsedge (Cyperus esculentus), pigweed (Amaranthus retroflexus), ragweed (common ragweed, Ambrosia elatior), soybean (Glycine max), barnyardgrass (Echinochloa crus-galli), oilseed rape (Brassica napus), waterhemp (common waterhemp, Amaranthus rudis), and velvetleaf (Abutilon theophrasti) were planted into a blend of loam soil and sand and treated preemergence with test chemicals formulated in a non-phytotoxic solvent mixture which included a surfactant.
as §1

[3] = tested on: giant foxtail (Setaria faberii); experiment: as above; settings: Postemergence; for Plant response rating, Foxtail, Giant: scale 0 to 100
Text: as §2, §1

[4] = tested on: winter wheat (Triticum aestivum); experiment: as above
Text: as §2, §1

[5] = tested on: pigweed (Amaranthus retroflexus); experiment: Test A pre-/postemergence greenhouse herbicide test, visual injury rating 0-100
Summary of the method: (§3)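 Seeds planted in loam-sand blend; preemergence directed soil spray and postemergence spray at 2–10 cm, one- to two-leaf stage, compounds formulated in non-phytotoxic solvent with surfactant. After about 10 days in greenhouse, injury rated visually against untreated controls, 0 (no effect) to 100 (complete control).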

[6] = tested on: velvetleaf (Abutilon theophrasti); experiment: as above
Summary of the method: as §3

[7] = tested on: large (Lg) crabgrass (Digitaria sanguinalis); experiment: as above
Summary of the method: as §3

[8] = tested on: wheat (Triticum aestivum); experiment: as above
Summary of the method: as §3

corn (Zea mays) = experiment: as above
Summary of the method: as §3

[9] = tested on: giant foxtail (Setaria faberii); experiment: as above
Summary of the method: as §3

[10] = tested on: morningglory (Ipomoea spp.); experiment: as above
Summary of the method: as §3

[11] = tested on: barnyardgrass (Echinochloa crus-galli); experiment: as above
Summary of the method: as §3

O=C(c1ccccc1)c1cn(S(=O)(=O)C(F)(F)F)nc1-c1cc(Cl)cc(Cl)c1 [Compound 2]
Plant response rating (0 to 100), Oat, Wild (wild oat (Avena fatua); 62 g ai/ha): 0 | Plant response rating (0 to 100), Oat, Wild (wild oat (Avena fatua); 125 g ai/ha): 0 | Plant response rating, Oat, Wild (wild oat (Avena fatua); 250 g ai/ha): 0 | Plant response rating, Oat, Wild (wild oat (Avena fatua); 500 g ai/ha): 0 | Plant response rating (0 to 100), Kochia (kochia (Kochia scoparia); 62 g ai/ha): 80 | Plant response rating (0 to 100), Kochia (kochia (Kochia scoparia); 125 g ai/ha): 85 | Plant response rating, Kochia (kochia (Kochia scoparia); 250 g ai/ha): 90 | Plant response rating, Kochia (kochia (Kochia scoparia); 500 g ai/ha): 95 | Plant response rating (0 to 100), Chickweed ([1]; 62 g ai/ha): 98 | Plant response rating (0 to 100), Chickweed ([1]; 125 g ai/ha): 100 | Plant response rating, Chickweed ([1]; 250 g ai/ha): 100 | Plant response rating, Chickweed ([1]; 500 g ai/ha): 100 | Plant response rating (0 to 100), Johnsongrass ([2]; 62 g ai/ha): 0 | Plant response rating (0 to 100), Johnsongrass ([2]; 125 g ai/ha): 0 | Plant response rating, Johnsongrass ([2]; 250 g ai/ha): 0 | Plant response rating, Johnsongrass ([2]; 500 g ai/ha): 0 | Plant response rating (0 to 100), Foxtail, Giant ([3]; 62 g ai/ha): 0 | Plant response rating (0 to 100), Foxtail, Giant ([3]; 125 g ai/ha): 0 | Plant response rating, Foxtail, Giant ([3]; 250 g ai/ha): 0 | Plant response rating, Foxtail, Giant ([3]; 500 g ai/ha): 0 | Plant response rating (0 to 100), Wheat ([4]; Postemergence, 62 g ai/ha): 0 | Plant response rating (0 to 100), Wheat ([4]; Postemergence, 125 g ai/ha): 0 | Plant response rating, Wheat ([4]; Postemergence, 250 g ai/ha, scale 0 to 100): 0 | Plant response rating, Wheat ([4]; Postemergence, 500 g ai/ha, scale 0 to 100): 0 | Plant response rating, Wheat ([4]; Preemergence, 0 to 100 scale (0 no effect, 100 complete control), rate 500 g ai/ha): 0 | Plant response rating (0 to 100 scale), Pigweed ([5]; Postemergence, 125 g ai/ha): 90 | Plant response rating (0 to 100 scale), Pigweed ([5]; Postemergence, 500 g ai/ha): 100 | Pigweed plant response rating (0 = no effect, 100 = complete control) ([5]; Preemergence, 125 g ai/ha): 50 | Plant response rating (0 to 100 scale), Pigweed ([5]; Preemergence, 500 g ai/ha): 100 | Plant response rating (0 to 100 scale), Velvetleaf ([6]; Postemergence, 125 g ai/ha): 90 | Plant response rating (0 to 100 scale), Velvetleaf ([6]; Postemergence, 500 g ai/ha): 100 | Velvetleaf plant response rating (0 = no effect, 100 = complete control) ([6]; Preemergence, 125 g ai/ha): 20 | Plant response rating (0 to 100 scale), Velvetleaf ([6]; Preemergence, 500 g ai/ha): 100 | Plant response rating (0 to 100 scale), Crabgrass, Large ([7]; Postemergence, 125 g ai/ha): 0 | Plant response rating (0 to 100 scale), Crabgrass, Large ([7]; Postemergence, 500 g ai/ha): 0 | Crabgrass, Large plant response rating (0 = no effect, 100 = complete control) ([7]; Preemergence, 125 g ai/ha): 0 | Plant response rating (0 to 100 scale), Crabgrass, Large ([7]; Preemergence, 500 g ai/ha): 0 | Plant response rating (0 to 100 scale), Wheat ([8]; Postemergence, 125 g ai/ha): 0 | Plant response rating (0 to 100 scale), Wheat ([8]; Postemergence, 500 g ai/ha): 0 | Wheat plant response rating (0 = no effect, 100 = complete control) ([8]; Preemergence, 125 g ai/ha): 0 | Plant response rating (0 to 100 scale), Wheat ([8]; Preemergence, 500 g ai/ha): 0 | Plant response rating (0 to 100 scale), Corn (corn (Zea mays); Postemergence, 125 g ai/ha): 0 | Plant response rating (0 to 100 scale), Corn (corn (Zea mays); Postemergence, 500 g ai/ha): 0 | Corn plant response rating (0 = no effect, 100 = complete control) (corn (Zea mays); Preemergence, 125 g ai/ha): 0 | Plant response rating (0 to 100 scale), Corn (corn (Zea mays); Preemergence, 500 g ai/ha): 0 | Plant response rating (0 to 100 scale), Foxtail, Giant ([9]; Postemergence, 125 g ai/ha): 0 | Plant response rating (0 to 100 scale), Foxtail, Giant ([9]; Postemergence, 500 g ai/ha): 0 | Foxtail, Giant plant response rating (0 = no effect, 100 = complete control) ([9]; Preemergence, 125 g ai/ha): 0 | Plant response rating (0 to 100 scale), Foxtail, Giant ([9]; Preemergence, 500 g ai/ha): 0 | Plant response rating (0 to 100 scale), Morningglory ([10]; Postemergence, 125 g ai/ha): 0 | Plant response rating (0 to 100 scale), Morningglory ([10]; Postemergence, 500 g ai/ha): 0 | Morningglory plant response rating (0 = no effect, 100 = complete control) ([10]; Preemergence, 125 g ai/ha): 0 | Plant response rating (0 to 100 scale), Morningglory ([10]; Preemergence, 500 g ai/ha): 0 | Plant response rating (0 to 100 scale), Barnyardgrass ([11]; Postemergence, 125 g ai/ha): 0 | Plant response rating (0 to 100 scale), Barnyardgrass ([11]; Postemergence, 500 g ai/ha): 0 | Barnyardgrass plant response rating (0 = no effect, 100 = complete control) ([11]; Preemergence, 125 g ai/ha): 0 | Plant response rating (0 to 100 scale), Barnyardgrass ([11]; Preemergence, 500 g ai/ha): 0
